Laboratory results as given in patent publication US20240280594A1, “MULTIWELL PLATE LIPOPHILICITY ASSAY” (Hoffmann-La Roche Inc., priority 2021, published 2024).
Read-outs that look alike come from different tables or passages of the source.

What was measured:
physchem = details: pH 7.4
[1] = cited from earlier work
[2] = pH 7.4
[3] = shake flask, pH 7.4, average literature value

Structure (SMILES): CC(CCc1ccccc1)NCC(O)c1ccc(O)c(C(N)=O)c1 (centres unmarked) [Labetalol]
- logD at 90 min (physchem): 1.08
- Literature LogD [1, 3]: 1.09

Structure (SMILES): CN(C)CCCN1c2ccccc2CCc2ccc(Cl)cc21 [Clomipramine]
- logD at 90 min (physchem): 3.46
- Literature LogD [1, 3]: 3.28

Structure (SMILES): CN(C)CCCN1c2ccccc2Sc2ccc(Cl)cc21 [Chlorpromazine]
- logD at 90 min (physchem): 3.26
- Literature LogD [1, 3]: 3.16

Structure (SMILES): NC(=O)N1c2ccccc2C=Cc2ccccc21 [Carbamazepine]
- logD at 90 min (physchem): 1.59

Structure (SMILES): COCCOC(=O)C1=C(C)NC(C)=C(C(=O)OC(C)C)C1c1cccc([N+](=O)[O-])c1 (centres unmarked) [Nimodipine]
- logD at 90 min (physchem): 3.95
- Literature LogD [1, 3]: 4.18

Structure (SMILES): CC(C)Cc1ccc(C(C)C(=O)O)cc1 (centres unmarked) [Ibuprofen]
- logD at 90 min (physchem): 0.97
- Literature LogD [1, 3]: 1.27

Structure (SMILES): CC(C(=O)O)c1ccc(-c2ccccc2)c(F)c1 (centres unmarked) [Flurbiprofen]
- logD at 90 min (physchem): 0.8
- Literature LogD [1, 3]: 0.91

Structure (SMILES): COc1ccc(Cl)cc1C(=O)NCCc1ccc(S(=O)(=O)NC(=O)NC2CCCCC2)cc1 [Glyburide]
- Literature LogD [1, 3]: 2.19

Structure (SMILES): CCC1(c2ccccc2)C(=O)NCNC1=O [Primidone]
- logD at 90 min (physchem): 0.74
- Literature LogD [1, 3]: 0.91

Structure (SMILES): C[C@@H]1C[C@H]2[C@@H]3CCC4=CC(=O)C=C[C@]4(C)[C@@]3(F)[C@@H](O)C[C@]2(C)[C@@]1(O)C(=O)CO [Dexamethason]
- Literature LogD ([1]; pH 7.4): 1.82
- CAMDIS FBP LogD [2]: 1.82

Structure (SMILES): Cc1ncc([N+](=O)[O-])n1CCO [Metronidazole]
- logD at 90 min (physchem): -0.22
- Literature LogD [1, 3]: −0.07

Structure (SMILES): NS(=O)(=O)c1cc(C2(O)NC(=O)c3ccccc32)ccc1Cl (centres unmarked) [Chlorthalidone]
- logD at 90 min (physchem): 0.9

Structure (SMILES): CN1CCCCC1CCN1c2ccccc2Sc2ccc([S+](C)[O-])cc21 (centres unmarked) [Mesoridazine]
- logD at 90 min (physchem): 1.74
- Literature LogD [1, 3]: 1.81

Structure (SMILES): C[C@]12CC[C@H]3[C@@H](CCC4=CC(=O)CC[C@@]43C)[C@@H]1CC[C@@H]2O [Testosterone]
- Literature LogD ([1]; pH 7.4): 3.23

Structure (SMILES): COc1ccc2c(c1)c(CC(=O)O)c(C)n2C(=O)c1ccc(Cl)cc1 [Indomethacin]
- logD at 90 min (physchem): 0.87
- Literature LogD [1, 3]: 0.76

Structure (SMILES): CC(=O)Nc1ccc(O)cc1 [Paracetamol]
- Literature LogD [1, 3]: 0.3

Structure (SMILES): CC(=O)CC(c1ccccc1)c1c(O)c2ccccc2oc1=O (centres unmarked) [Warfarin]
- logD (physchem): 0.87
- Literature LogD ([1]; pH 7.4): 1.12

Structure (SMILES): O=C(O)Cc1ccccc1Nc1c(Cl)cccc1Cl [Diclofenac]
- logD at 90 min (physchem): 1.12
- Literature LogD [1, 3]: 1.14

Structure (SMILES): CCCSc1ccc2nc(NC(=O)OC)[nH]c2c1 [Albendazole]
- logD at 90 min (physchem): 3.41
- Literature LogD [1, 3]: 3.29

Structure (SMILES): CN(C)CCC=C1c2ccccc2CCc2ccccc21 [Amitriptyline]
- logD at 90 min (physchem): 2.87
- Literature LogD [1, 3]: 2.79

Structure (SMILES): CC(C(=O)O)c1cccc(C(=O)c2ccccc2)c1 (centres unmarked) [Ketoprofen]
- Literature LogD [1, 3]: −0.23

Structure (SMILES): COC1=CC(=O)C[C@@H](C)[C@]12Oc1c(Cl)c(OC)cc(OC)c1C2=O [Griseofulvin]
- logD at 90 min (physchem): 2.19

Structure (SMILES): CC(=O)[C@H]1CC[C@H]2[C@@H]3CCC4=CC(=O)CC[C@]4(C)[C@H]3CC[C@]12C [Progesterone]
- Literature LogD ([1]; pH 7.4): 3.76

Structure (SMILES): CCCC(C)(COC(N)=O)COC(N)=O [Meprobamate]
- logD (physchem): 0.76
- Literature LogD ([1]; pH 7.4): 0.7

Structure (SMILES): C[C@]12C=CC(=O)C=C1CC[C@@H]1[C@@H]2[C@@H](O)C[C@@]2(C)[C@H]1CC[C@]2(O)C(=O)CO [Prednisolone]
- logD at 90 min (physchem): 1.53
- Literature LogD [1, 3]: 1.45

Structure (SMILES): Cn1c(=O)c2[nH]cnc2n(C)c1=O [Theophyline]
- Literature LogD ([1]; pH 7.4): −0.02
- CAMDIS FBP LogD [2]: −0.16

Structure (SMILES): O=C1NC(=O)C(c2ccccc2)(c2ccccc2)N1 [Phenytoin]
- logD at 90 min (physchem): 2.32
- Literature LogD [1, 3]: 2.23

Structure (SMILES): C=CCc1ccccc1OCC(O)CNC(C)C (centres unmarked) [Alprenolol]
- logD at 90 min (physchem): 1.03
- Literature LogD [1, 3]: 0.88

Structure (SMILES): COCCc1ccc(OCC(O)CNC(C)C)cc1 (centres unmarked) [Metoprolol]
- logD at 90 min (physchem): 0.06
- Literature LogD [1, 3]: −0.17
